For one assay, the system named is SERT. In words: SERT binding, inhibition of [3H]paroxetine. Particulars: ratio of Ki values taken from reference 21.
Assay [1] concerns the target serotonin transporter (SERT) (Rattus norvegicus, UniProt P31652). Nature of the assay: [3H]citalopram binding assay. The settings on record: ratio of Ki values measured in this paper.
Another assay concerns the target NET. The settings on record: read-out: NET (Ki); value taken from the literature; cited from earlier work.

Chain of serotonin transporter (SERT) (P31652 whole entry): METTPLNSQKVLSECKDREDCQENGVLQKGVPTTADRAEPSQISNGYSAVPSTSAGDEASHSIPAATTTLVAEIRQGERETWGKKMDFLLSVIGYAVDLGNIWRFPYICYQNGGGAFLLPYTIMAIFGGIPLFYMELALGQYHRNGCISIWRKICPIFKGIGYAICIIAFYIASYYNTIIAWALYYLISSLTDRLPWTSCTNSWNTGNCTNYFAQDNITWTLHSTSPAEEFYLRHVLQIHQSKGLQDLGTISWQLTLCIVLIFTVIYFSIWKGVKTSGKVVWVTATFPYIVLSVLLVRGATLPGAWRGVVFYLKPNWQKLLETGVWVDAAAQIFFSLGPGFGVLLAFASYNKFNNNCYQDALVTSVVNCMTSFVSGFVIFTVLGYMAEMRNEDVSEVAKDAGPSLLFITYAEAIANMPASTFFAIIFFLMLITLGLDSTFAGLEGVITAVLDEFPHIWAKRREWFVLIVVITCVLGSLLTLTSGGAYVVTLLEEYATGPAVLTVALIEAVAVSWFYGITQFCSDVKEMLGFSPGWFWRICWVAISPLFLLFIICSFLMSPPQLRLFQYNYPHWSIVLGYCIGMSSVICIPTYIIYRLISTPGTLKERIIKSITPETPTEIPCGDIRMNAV

As for `CCOC(=O)C1(c2ccc3ccccc3c2)CCN(C)CC1.Cl` [Compound 2d], the NET/SERT with SERT is recorded as 9,900.

Regarding `O=C(O)C(=O)O.O=C(OCc1ccc(Cl)c(Cl)c1)C1(c2ccc(I)cc2)CCNCC1` [Compound 14c, 3,4-Dichlorobenzyl 4-(4-iodophenyl) piperidine-4-carboxylate], the NET/SERT in assay [1] is given as 1,000.

In the case of `Cl.O=C(OCc1ccccc1)C1(c2ccc(Cl)c(Cl)c2)CCNCC1` [Compound 12a, Benzyl 4-(3,4-dichlorophenyl) piperidine-4-carboxylate], in assay [1], the DAT/SERT amounted to 100.

On to `CCOC(=O)C1(c2ccc(Cl)c(Cl)c2)CCN(C)CC1.Cl` [Compound 2a], for which, in the assay with SERT, the NET/SERT is on record as 4,000. For the same molecule, the Ki on NET was 74.5 µM.

For `CCOC(=O)C1(c2ccc(I)cc2)CCNCC1.Cl` [Compound 4c, Ethyl 4-(4-iodophenyl)-piperidine-4-carboxylate], the DAT/SERT in assay [1] is recorded as 1,400.

Take `CCOC(=O)C1(c2ccc(I)cc2)CCN(C)CC1.Cl` [Compound 2c]: the NET/SERT in the assay on SERT was 25,000.

`CN1CCC(C(=O)OCc2ccc(Cl)c(Cl)c2)(c2ccc(Cl)c(Cl)c2)CC1.Cl` [Compound 8d, 3,4-Dichlorobenzyl 4-(3,4-dichlorophenyl)-1-methylpiperidine-4-carboxylate]: the DAT/SERT in assay [1] is 1,200.

For orientation: Ki means a dissociation constant, usually derived from enzyme kinetics or from competition with a known ligand.

These data come from PMC3713777 (Bioorganic & medicinal chemistry, 2010).
